Data: the supplement of paper PMC10307832

Tests used:
Assay in all cases: relative viability (nuclei count vs DMSO), 5 days (fraction); higher = more cells survive
Midostaurin = compound: CO[C@@H]1[C@H](N(C)C(=O)c2ccccc2)C[C@H]2O[C@]1(C)n1c3ccccc3c3c4c(c5c6ccccc6n2c5c31)C(=O)NC4 [Midostaurin]
Outline: (§1)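 Vehicle-anchored 1536-well plates of lung cancer cell lines, held overnight at 37 °C, were pinned with five library-drug doses (not always all listed) spaced by √10. No medium change followed over the next 5 days, after which the cells were fixed, permeabilised and Hoechst-stained together and imaged at 4×. Nuclei were counted with MetaXpress, and viability is treated-well nuclei over vehicle-well nuclei, taken as a median across plates. Plates passed with control CV below 25% and at least one doubling.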

[1] = compound: COc1cc(-c2nn([C@H]3CC[C@H](N4CCN(C(C)=O)CC4)CC3)c3ncnc(N)c23)ccc1NC(=O)c1cc2ccccc2n1C
Outline: as §1

Midostaurin + Alpelisib = compound: CO[C@@H]1[C@H](N(C)C(=O)c2ccccc2)C[C@H]2O[C@]1(C)n1c3ccccc3c3c4c(c5c6ccccc6n2c5c31)C(=O)NC4 [Midostaurin] + Cc1nc(NC(=O)N2CCC[C@H]2C(N)=O)sc1-c1ccnc(C(C)(C)C(F)(F)F)c1 [Alpelisib] (partner 2 µM)
Outline: (§2)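 Lung cancer cell lines, seeded in 1536-well plates, were treated the following day by pin tool with a single drug or with five library-drug doses (not always all listed) in √10 steps on top of a fixed anchor-drug dose. Cells were fixed and nuclei stained in one step after 5 days, and nuclei were counted. Relative viability is the nuclei count for treated wells divided by that for vehicle wells, reported as medians of duplicate plates.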

Midostaurin + Pemetrexed = compound: CO[C@@H]1[C@H](N(C)C(=O)c2ccccc2)C[C@H]2O[C@]1(C)n1c3ccccc3c3c4c(c5c6ccccc6n2c5c31)C(=O)NC4 [Midostaurin] + Nc1nc2[nH]cc(CCc3ccc(C(=O)N[C@@H](CCC(=O)O)C(=O)O)cc3)c2c(=O)[nH]1 [Pemetrexed] (partner 0.2 µM)
Outline: as §2

[2] = compound: COc1cc(-c2nn([C@H]3CC[C@H](N4CCN(C(C)=O)CC4)CC3)c3ncnc(N)c23)ccc1NC(=O)c1cc2ccccc2n1C + CC(C)C[C@H](NC(=O)[C@H](Cc1ccccc1)NC(=O)c1cnccn1)B(O)O [Bortezomib] (partner 0.002 µM)
Outline: as §2

Cell Line	relative viability (Midostaurin; 0.01 µM)	relative viability (Midostaurin; 0.03162 µM)	relative viability (Midostaurin; 0.1 µM)	relative viability (Midostaurin; 0.3162 µM)	relative viability ([1]; 0.0128 µM)	relative viability ([1]; 0.04048 µM)	relative viability ([1]; 0.128 µM)	relative viability ([1]; 1.28 µM)	relative viability (Midostaurin + Alpelisib; first compound 0.01 µM)	relative viability (Midostaurin + Alpelisib; first compound 0.03162 µM)	relative viability (Midostaurin + Alpelisib; first compound 0.1 µM)	relative viability (Midostaurin + Alpelisib; first compound 0.3162 µM)	relative viability (Midostaurin + Pemetrexed; first compound 0.01 µM)	relative viability (Midostaurin + Pemetrexed; first compound 0.03162 µM)	relative viability (Midostaurin + Pemetrexed; first compound 0.1 µM)	relative viability (Midostaurin + Pemetrexed; first compound 0.3162 µM)	relative viability ([2]; first compound 0.0128 µM)	relative viability ([2]; first compound 0.04048 µM)	relative viability ([2]; first compound 0.128 µM)	relative viability ([2]; first compound 1.28 µM)
NCI-H1666	1.03	0.953	0.992	0.888	0.98	0.872	0.947	0.941	1.06	0.788	0.838	0.732	0.876	0.812	0.74	0.722	0.946	0.859	0.807	0.68
NCI-H2085	1.06	0.889	1.02	0.919	1.01	1.01	0.99	0.992	0.961	0.9	0.907	0.788	0.971	0.784	0.928	0.632	1.05	1.06	1.12	1.14
NCI-H1734	0.939	0.939	0.998	0.871	1	0.944	0.948	0.783	0.656	0.618	0.69	0.742	0.421	0.405	0.446	0.456	0.995	0.862	1.1	0.756
NCI-H2126	1.02	0.872	0.999	1.02	1.04	1.01	0.963	0.792	0.772	0.733	0.765	0.804	0.672	0.627	0.711	0.688	1.17	1.17	1.06	1.03
EMC-BAC-2	0.928	0.903	0.858	0.954	1.04	1.17	0.941	0.957	0.765	0.717	0.586	0.61	0.407	0.431	0.383	0.457	1.03	1.12	1.04	1.12
NCI-H1993	0.948	1.01	1.17	0.802	0.966	0.737	0.834	0.87	0.714	0.657	0.675	0.643	0.627	0.542	0.597	0.51	1.2	1.09	1	0.956
NCI-H520	0.914	0.96	1.07	0.863	0.79	0.959	0.836	0.778	0.891	0.882	0.845	0.981	0.662	0.723	0.736	0.407	0.741	0.624	0.358	0.334
NCI-H647	0.919	0.88	0.962	0.884	1.09	0.961	0.88	0.623	0.948	1.15	0.861	0.672	0.185	0.2	0.184	0.112	1.13	1.34	0.877	0.588
NCI-H1792	0.954	0.697	0.929	0.777	0.975	0.878	1.02	0.951	0.703	0.672	0.63	0.654	0.761	0.835	0.756	0.424	1.03	0.883	0.948	0.67
SK-LU-1	0.976	1.05	1.02	0.953	1.08	0.994	0.864	0.597	0.913	1.17	0.894	0.647	0.99	0.92	0.836	0.794	1.53	1.22	1.17	0.783
NCI-H2009	0.972	0.904	0.961	0.939	1.01	0.861	0.927	0.973	1.24	1.01	1.05	1.16	0.956	0.878	0.921	1.06	1.14	0.555	1.06	0.962
LOU-NH91	1.02	0.89	0.967	1	0.985	1.04	0.978	0.853	0.776	0.673	0.724	0.756	0.317	0.399	0.37	0.397	0.498	0.522	0.515	0.518
NCI-H2405	1.01	1.05	0.883	1.07	1.06	0.667	0.964	0.526	0.87	0.903		0.573	1.11	1	0.974	1.27	0.939		0.936	0.668
LCLC-97TM1	1.02	0.867	1.06	1.17	0.943	0.879	0.946	0.931	0.251		0.185	0.211	0.164	0.137	0.193	0.166	0.35	0.327	0.567	0.584
NCI-H596	0.946	1.01	1.15	1.17	1.03	0.95	0.833	0.836	0.587	0.546	0.508	0.432	0.528	0.551	0.488	0.551	1.03	1.31	0.908	0.954
